Data taken from PubChem BioAssay AID248 (DTP/NCI, 2004).
Several values for one entry are separate records, joined by “and”; a condition that tells them apart may be missing. Identical values can stand only once. Inconclusive results and toxic doses are left out. Cut-off read from the data, not from the text of the source: active = T/C of 150% or more; inactive = T/C below 125%.

Tested on: L1210 leukemia ip in BDF1 mice, survival T/C
Experiment: NCI In Vivo Anticancer Drug Screen. Data for tumor model L1210 Leukemia (intraperitoneal) in B6D2F1 (BDF1) mice
Conditions: endpoint: mean survival time, higher = longer survival
Outline: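 Each compound was tested against a transplantable tumor grown in mice. The endpoint was survival, with treated animals benchmarked against vehicle controls as a simple ratio.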

[1] = dose: 12.5 mg/kg/injection, schedule: Q01DX009 (ip), vehicle: saline with Tween-80
[2] = dose: 25.0 mg/kg/injection, schedule: Q01DX009 (ip), vehicle: saline with Tween-80
[3] = dose: 50.0 mg/kg/injection, schedule: Q01DX009 (ip), vehicle: saline with Tween-80
[4] = dose: 100.0 mg/kg/injection, schedule: Q04DX003 (ip), vehicle: saline with Tween-80
[5] = dose: 200.0 mg/kg/injection, schedule: Q04DX003 (ip), vehicle: saline with Tween-80
[6] = dose: 400.0 mg/kg/injection, schedule: Q04DX003 (ip), vehicle: saline with Tween-80
[7] = dose: 100.0 mg/kg/injection, schedule: Q04DX003 (ip), vehicle: Klucel (hydroxypropylcellulose) (HPC)
[8] = dose: 200.0 mg/kg/injection, schedule: Q04DX003 (ip), vehicle: Klucel (hydroxypropylcellulose) (HPC)
[9] = dose: 400.0 mg/kg/injection, schedule: Q04DX003 (ip), vehicle: Klucel (hydroxypropylcellulose) (HPC)
[10] = dose: 100.0 mg/kg/injection, schedule: Q01DX001 (ip), vehicle: Klucel (hydroxypropylcellulose) (HPC)
[11] = dose: 200.0 mg/kg/injection, schedule: Q01DX001 (ip), vehicle: Klucel (hydroxypropylcellulose) (HPC)
[12] = dose: 400.0 mg/kg/injection, schedule: Q01DX001 (ip), vehicle: Klucel (hydroxypropylcellulose) (HPC)
[13] = dose: 75.0 mg/kg/injection, schedule: Q01DX001 (ip), vehicle: carboxymethylcellulose (CMC)
[14] = dose: 150.0 mg/kg/injection, schedule: Q01DX001 (ip), vehicle: carboxymethylcellulose (CMC)
[15] = dose: 50.0 mg/kg/injection, schedule: Q01DX001 (ip), vehicle: saline
[16] = dose: 100.0 mg/kg/injection, schedule: Q01DX001 (ip), vehicle: saline
[17] = dose: 200.0 mg/kg/injection, schedule: Q01DX001 (ip), vehicle: saline

Measured: T/C

O=C(/C=C/c1ccccc1)NC(=S)Nc1ccccc1F
inactive: [1] 106 % of control and 88 % of control | [2] 95 % of control and 107 % of control | [3] 97 % of control | dose: 100.0 mg/kg/injection, schedule: Q01DX001 (ip), vehicle: saline with Tween-80 92 % of control | dose: 100.0 mg/kg/injection, schedule: Q04DX002 (ip), vehicle: alcohol 95 % of control and 90 % of control | [4] 94 % of control | dose: 200.0 mg/kg/injection, schedule: Q01DX001 (ip), vehicle: saline with Tween-80 90 % of control | dose: 200.0 mg/kg/injection, schedule: Q01DX009 (ip), vehicle: saline with Tween-80 89 % of control | dose: 200.0 mg/kg/injection, schedule: Q04DX002 (ip), vehicle: alcohol 101 % of control | [5] 87 % of control | dose: 400.0 mg/kg/injection, schedule: Q01DX001 (ip), vehicle: saline with Tween-80 87 % of control | dose: 400.0 mg/kg/injection, schedule: Q01DX009 (ip), vehicle: saline with Tween-80 86 % of control | dose: 400.0 mg/kg/injection, schedule: Q04DX002 (ip), vehicle: alcohol 102 % of control | [6] 86 % of control

COc1ccc(C=O)cc1OCCOc1cc(C=O)ccc1OC
inactive: dose: 50.0 mg/kg/injection, schedule: Q01DX009 (ip), vehicle: Klucel (hydroxypropylcellulose) (HPC) 91 % of control | dose: 100.0 mg/kg/injection, schedule: Q01DX009 (ip), vehicle: Klucel (hydroxypropylcellulose) (HPC) 108 % of control | dose: 200.0 mg/kg/injection, schedule: Q01DX009 (ip), vehicle: Klucel (hydroxypropylcellulose) (HPC) 94 % of control

O=P(Oc1ccccc1)(N1CCCCC1)N1CCCCC1
inactive: dose: 25.0 mg/kg/injection, schedule: Q01DX001 (ip), vehicle: other 96 % of control | dose: 25.0 mg/kg/injection, schedule: Q01DX009 (ip), vehicle: carboxymethylcellulose (CMC) 97 % of control and 101 % of control | dose: 25.0 mg/kg/injection, schedule: Q04DX003 (ip), vehicle: other 97 % of control | dose: 50.0 mg/kg/injection, schedule: Q01DX001 (ip), vehicle: other 91 % of control | dose: 50.0 mg/kg/injection, schedule: Q04DX003 (ip), vehicle: other 108 % of control | dose: 100.0 mg/kg/injection, schedule: Q01DX001 (ip), vehicle: other 106 % of control | dose: 100.0 mg/kg/injection, schedule: Q04DX002 (ip), vehicle: carboxymethylcellulose (CMC) 95 % of control and 100 % of control | dose: 100.0 mg/kg/injection, schedule: Q04DX003 (ip), vehicle: other 93 % of control | dose: 200.0 mg/kg/injection, schedule: Q04DX002 (ip), vehicle: carboxymethylcellulose (CMC) 104 % of control and 106 % of control | dose: 200.0 mg/kg/injection, schedule: Q04DX003 (ip), vehicle: carboxymethylcellulose (CMC) 92 % of control

CC(=O)C1CCC2C3=CC=C4CC(O)CCC4(C)C3=CCC12C (stereo not drawn)
inactive: [7] 96 % of control | [8] 93 % of control | [9] 93 % of control

Nc1cccc(NC=O)c1
inactive: [2] 102 % of control | [3] 104 % of control

O=C1OC(O)c2cccc3cccc1c23 (stereo not drawn)
inactive: [1] 93 % of control and 89 % of control

CCCCCCCCCCCCNc1c(OCC)c(=O)c1=O
inactive: [7] 88 % of control | [8] 91 % of control | [9] 93 % of control

O=c1[nH]c(=O)n(CCCOc2ccccc2)cc1CCc1ccccc1
inactive: [10] 91 % of control | [11] 94 % of control | [12] 87 % of control

Brc1ccc2oc3ccccc3c2c1
inactive: dose: 50.0 mg/kg/injection, schedule: Q04DX002 (ip), vehicle: Klucel (hydroxypropylcellulose) (HPC) 92 % of control | dose: 100.0 mg/kg/injection, schedule: Q04DX002 (ip), vehicle: Klucel (hydroxypropylcellulose) (HPC) 93 % of control | dose: 100.0 mg/kg/injection, schedule: Q04DX002 (ip), vehicle: saline 104 % of control | dose: 200.0 mg/kg/injection, schedule: Q04DX002 (ip), vehicle: Klucel (hydroxypropylcellulose) (HPC) 96 % of control | dose: 400.0 mg/kg/injection, schedule: Q04DX002 (ip), vehicle: Klucel (hydroxypropylcellulose) (HPC) 100 % of control | dose: 400.0 mg/kg/injection, schedule: Q04DX002 (ip), vehicle: saline 93 % of control

O=C1C2(Cl)C3(Cl)C4(Cl)C(Cl)(Cl)C5(Cl)[C@]3(Cl)C1(Cl)[C@]5(Cl)C24Cl (stereo partly drawn)
inactive: [13] 102 % of control | [14] 96 % of control

C1CN2CCOB(O1)OCC2
inactive: dose: 69.0 mg/kg/injection, schedule: Q01DX009 (ip), vehicle: other 103 % of control | dose: 138.0 mg/kg/injection, schedule: Q01DX009 (ip), vehicle: other 98 % of control | dose: 275.0 mg/kg/injection, schedule: Q01DX009 (ip), vehicle: other 98 % of control

OC1(c2ccccc2)CCC1
inactive: dose: 62.0 mg/kg/injection, schedule: Q01DX009 (ip), vehicle: saline with Tween-80 91 % of control | dose: 125.0 mg/kg/injection, schedule: Q01DX009 (ip), vehicle: saline with Tween-80 99 % of control | dose: 250.0 mg/kg/injection, schedule: Q01DX009 (ip), vehicle: saline with Tween-80 97 % of control

O=C(O)C(Br)C(Br)c1ccccc1 (stereo not drawn)
inactive: [4] 101 % of control | [5] 106 % of control | [6] 96 % of control

CC(=O)OC1CCC2C3CCc4cc(OC(=S)N(C)C)ccc4C3CCC12C (stereo not drawn)
inactive: [4] 101 % of control | [5] 101 % of control | [6] 110 % of control

CCN(CC)C(=O)CN
inactive: dose: 100.0 mg/kg/injection, schedule: Q04DX003 (ip), vehicle: saline 103 % of control | dose: 200.0 mg/kg/injection, schedule: Q04DX003 (ip), vehicle: saline 100 % of control | dose: 400.0 mg/kg/injection, schedule: Q04DX003 (ip), vehicle: saline 103 % of control

O=C(O)c1ccccc1-c1ccccc1C(=O)Nc1ccc2c(c1)Cc1cc(F)ccc1-2
inactive: [13] 91 % of control | [14] 98 % of control

COc1cccc(CCN)c1
inactive: [15] 116 % of control | [16] 110 % of control | [17] 118 % of control

CCOC(=O)C1CCCCCC1=O (stereo not drawn)
inactive: dose: 50.0 mg/kg/injection, schedule: Q01DX009 (ip), vehicle: saline 110 % of control | dose: 100.0 mg/kg/injection, schedule: Q01DX009 (ip), vehicle: saline 98 % of control | dose: 100.0 mg/kg/injection, schedule: Q04DX003 (ip), vehicle: alcohol 102 % of control | dose: 200.0 mg/kg/injection, schedule: Q01DX009 (ip), vehicle: saline 95 % of control | dose: 200.0 mg/kg/injection, schedule: Q04DX003 (ip), vehicle: alcohol 103 % of control | dose: 400.0 mg/kg/injection, schedule: Q04DX003 (ip), vehicle: alcohol 100 % of control

CCS(=O)(=O)CS(=O)(=O)C(C)(C)C
inactive: [10] 98 % of control | [11] 91 % of control | [12] 94 % of control

C=CCNC(=O)N(CC=C)N=O
inactive: dose: 1.5 mg/kg/injection, schedule: Q01DX001 (ip), vehicle: carboxymethylcellulose (CMC) 102 % of control | dose: 3.0 mg/kg/injection, schedule: Q01DX001 (ip), vehicle: carboxymethylcellulose (CMC) 95 % of control | dose: 6.0 mg/kg/injection, schedule: Q01DX001 (ip), vehicle: carboxymethylcellulose (CMC) 96 % of control | dose: 12.0 mg/kg/injection, schedule: Q01DX001 (ip), vehicle: carboxymethylcellulose (CMC) 90 % of control | dose: 16.0 mg/kg/injection, schedule: Q01DX001 (ip), vehicle: carboxymethylcellulose (CMC) 102 % of control | dose: 31.0 mg/kg/injection, schedule: Q01DX001 (ip), vehicle: carboxymethylcellulose (CMC) 104 % of control | dose: 62.0 mg/kg/injection, schedule: Q01DX001 (ip), vehicle: carboxymethylcellulose (CMC) 100 % of control | dose: 125.0 mg/kg/injection, schedule: Q01DX001 (ip), vehicle: carboxymethylcellulose (CMC) 96 % of control

CN(C)Cc1c(Cl)cccc1C(O)c1ccccc1 (stereo not drawn)
inactive: [15] 96 % of control | [16] 106 % of control | [17] 106 % of control | dose: 400.0 mg/kg/injection, schedule: Q01DX001 (ip), vehicle: saline 95 % of control
